Assay results: paper PMC8909834, “An Orally Bioavailable and Highly Efficacious Inhibitor of CDK9/FLT3 for the Treatment of Acute Myeloid Leukemia” (Cancers, 2022)

How the values were obtained:
Test in all cases: Kinase Hotspot radiolabel assay
Format in all cases: biochemical
Details in all cases: read-out: % Residual Activity
[1] = target: T1, BTK (Homo sapiens, UniProt Q06187)
T1 construct: purchased Reaction Biology Corporation (Kinase HotSpot)
How it was run: (§1)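 Data come from a 369-member kinase selectivity screen run as a Hotspot radiolabel assay. Compound concentration was 1 µM, and Ki was determined wherever inhibition topped 90%.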

[2] = target: T2, ALK1/ACVRL1 (Homo sapiens, UniProt P37023)
T2 construct: purchased Reaction Biology Corporation (Kinase HotSpot)
How it was run: as §1

[3] = target: T3, CDK7/cyclin H (Homo sapiens, UniProt P50613)
T3 construct: purchased Reaction Biology Corporation (Kinase HotSpot)
How it was run: as §1

[4] = target: T4, GRK5 (Homo sapiens, UniProt P34947)
T4 construct: purchased Reaction Biology Corporation (Kinase HotSpot)
How it was run: as §1

[5] = target: T5, TLK1 (Homo sapiens, UniProt Q9UKI8)
T5 construct: purchased Reaction Biology Corporation (Kinase HotSpot)
How it was run: as §1

[6] = target: T6, PYK2 (Homo sapiens, UniProt Q14289)
T6 construct: purchased Reaction Biology Corporation (Kinase HotSpot)
T6 sequence (Q14289 whole entry): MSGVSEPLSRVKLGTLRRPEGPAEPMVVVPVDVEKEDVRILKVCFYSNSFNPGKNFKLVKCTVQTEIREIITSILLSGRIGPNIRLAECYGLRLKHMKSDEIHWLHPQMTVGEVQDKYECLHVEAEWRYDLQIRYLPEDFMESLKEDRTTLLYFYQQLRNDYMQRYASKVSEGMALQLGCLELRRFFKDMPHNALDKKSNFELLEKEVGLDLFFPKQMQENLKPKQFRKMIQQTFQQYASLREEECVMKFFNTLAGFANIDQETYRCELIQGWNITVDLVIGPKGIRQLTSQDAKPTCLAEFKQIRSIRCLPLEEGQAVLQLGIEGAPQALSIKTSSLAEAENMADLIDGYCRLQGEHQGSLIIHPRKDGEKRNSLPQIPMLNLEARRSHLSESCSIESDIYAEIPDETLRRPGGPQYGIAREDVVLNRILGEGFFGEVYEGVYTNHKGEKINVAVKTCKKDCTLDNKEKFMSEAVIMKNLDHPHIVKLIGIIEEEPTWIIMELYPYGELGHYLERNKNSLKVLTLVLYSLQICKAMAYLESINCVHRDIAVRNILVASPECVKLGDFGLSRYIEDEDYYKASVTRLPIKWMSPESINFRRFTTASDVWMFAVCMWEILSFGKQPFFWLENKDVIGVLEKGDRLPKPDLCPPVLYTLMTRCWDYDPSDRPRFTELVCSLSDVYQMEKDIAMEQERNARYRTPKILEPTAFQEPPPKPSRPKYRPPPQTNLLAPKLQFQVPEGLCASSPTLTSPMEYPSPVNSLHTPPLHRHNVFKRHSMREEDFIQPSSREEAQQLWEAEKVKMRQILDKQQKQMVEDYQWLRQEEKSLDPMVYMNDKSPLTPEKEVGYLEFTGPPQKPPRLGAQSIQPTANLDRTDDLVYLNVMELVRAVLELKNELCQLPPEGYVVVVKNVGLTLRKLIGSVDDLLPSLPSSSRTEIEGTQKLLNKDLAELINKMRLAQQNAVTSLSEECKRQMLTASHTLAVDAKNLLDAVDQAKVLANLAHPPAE
How it was run: as §1

[7] = target: T7, MST2/STK3 (Homo sapiens, UniProt Q13188)
T7 construct: purchased Reaction Biology Corporation (Kinase HotSpot)
T7 sequence (Q13188 whole entry): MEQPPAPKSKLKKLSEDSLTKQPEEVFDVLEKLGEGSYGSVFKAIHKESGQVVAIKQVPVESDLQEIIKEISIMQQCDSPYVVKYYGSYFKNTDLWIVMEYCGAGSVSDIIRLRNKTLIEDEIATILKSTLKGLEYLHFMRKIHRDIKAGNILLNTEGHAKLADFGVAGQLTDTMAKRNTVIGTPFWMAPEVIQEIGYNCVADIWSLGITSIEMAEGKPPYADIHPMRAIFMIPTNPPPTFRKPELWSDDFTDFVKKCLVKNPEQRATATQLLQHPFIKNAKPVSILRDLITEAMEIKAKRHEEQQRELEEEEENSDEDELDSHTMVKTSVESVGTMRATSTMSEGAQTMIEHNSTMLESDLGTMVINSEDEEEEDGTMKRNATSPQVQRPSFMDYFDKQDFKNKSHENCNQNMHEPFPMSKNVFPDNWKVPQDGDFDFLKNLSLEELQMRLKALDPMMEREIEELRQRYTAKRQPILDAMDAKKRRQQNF
How it was run: as §1

[8] = target: T8, NEK9 (Homo sapiens, UniProt Q8TD19)
T8 construct: purchased Reaction Biology Corporation (Kinase HotSpot)
How it was run: as §1

[9] = target: T9, EPHB2 (Homo sapiens, UniProt P29323)
T9 construct: purchased Reaction Biology Corporation (Kinase HotSpot)
How it was run: as §1

[10] = target: T10, RIPK2 (Homo sapiens, UniProt O43353)
T10 construct: purchased Reaction Biology Corporation (Kinase HotSpot)
How it was run: as §1

[11] = target: T11, DMPK (Homo sapiens, UniProt Q09013)
T11 construct: purchased Reaction Biology Corporation (Kinase HotSpot)
How it was run: as §1

[12] = target: T12, GRK6 (Homo sapiens, UniProt P43250)
T12 construct: purchased Reaction Biology Corporation (Kinase HotSpot)
How it was run: as §1

[13] = target: T13, PAK2 (Homo sapiens, UniProt Q13177)
T13 construct: purchased Reaction Biology Corporation (Kinase HotSpot)
How it was run: as §1

[14] = target: T14, ALK (Homo sapiens, UniProt Q9UM73)
T14 construct: purchased Reaction Biology Corporation (Kinase HotSpot)
How it was run: as §1

[15] = target: T15, PEAK1 (Homo sapiens, UniProt Q9H792)
T15 construct: purchased Reaction Biology Corporation (Kinase HotSpot)
How it was run: as §1

[16] = target: T16, SBK1 (Homo sapiens, UniProt Q52WX2)
T16 construct: purchased Reaction Biology Corporation (Kinase HotSpot)
How it was run: as §1

[17] = target: T17, MEKK3 (Homo sapiens, UniProt Q99759)
T17 construct: purchased Reaction Biology Corporation (Kinase HotSpot)
T17 sequence (Q99759 whole entry): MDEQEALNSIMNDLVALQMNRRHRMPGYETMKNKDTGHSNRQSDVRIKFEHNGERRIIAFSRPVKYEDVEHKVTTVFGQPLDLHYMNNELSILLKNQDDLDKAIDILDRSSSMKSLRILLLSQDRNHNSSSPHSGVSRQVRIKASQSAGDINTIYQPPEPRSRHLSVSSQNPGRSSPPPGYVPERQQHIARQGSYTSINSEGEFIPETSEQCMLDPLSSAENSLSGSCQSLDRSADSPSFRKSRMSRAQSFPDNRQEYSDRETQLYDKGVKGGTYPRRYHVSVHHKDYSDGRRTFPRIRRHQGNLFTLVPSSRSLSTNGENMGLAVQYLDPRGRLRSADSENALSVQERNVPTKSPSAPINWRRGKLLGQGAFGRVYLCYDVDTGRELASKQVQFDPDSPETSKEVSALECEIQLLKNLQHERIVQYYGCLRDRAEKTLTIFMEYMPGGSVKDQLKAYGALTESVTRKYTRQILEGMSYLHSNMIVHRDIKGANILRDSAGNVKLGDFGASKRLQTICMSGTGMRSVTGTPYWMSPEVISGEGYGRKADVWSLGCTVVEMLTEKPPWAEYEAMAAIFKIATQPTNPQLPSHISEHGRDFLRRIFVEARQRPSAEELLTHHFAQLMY
How it was run: as §1

[18] = target: T18, RON/MST1R (Homo sapiens, UniProt Q04912)
T18 construct: purchased Reaction Biology Corporation (Kinase HotSpot)
How it was run: as §1

[19] = target: T19, ASK1/MAP3K5 (Homo sapiens, UniProt Q99683)
T19 construct: purchased Reaction Biology Corporation (Kinase HotSpot)
How it was run: as §1

[20] = target: T20, ERK7/MAPK15 (Homo sapiens, UniProt Q8TD08)
T20 construct: purchased Reaction Biology Corporation (Kinase HotSpot)
How it was run: as §1

[21] = target: T21, PKA (Homo sapiens, UniProt P17612)
T21 construct: purchased Reaction Biology Corporation (Kinase HotSpot)
How it was run: as §1

[22] = target: T22, DYRK1B (Homo sapiens, UniProt Q9Y463)
T22 construct: purchased Reaction Biology Corporation (Kinase HotSpot)
How it was run: as §1

[23] = target: T23, STK25/YSK1 (Homo sapiens, UniProt O00506)
T23 construct: purchased Reaction Biology Corporation (Kinase HotSpot)
T23 sequence (O00506 whole entry): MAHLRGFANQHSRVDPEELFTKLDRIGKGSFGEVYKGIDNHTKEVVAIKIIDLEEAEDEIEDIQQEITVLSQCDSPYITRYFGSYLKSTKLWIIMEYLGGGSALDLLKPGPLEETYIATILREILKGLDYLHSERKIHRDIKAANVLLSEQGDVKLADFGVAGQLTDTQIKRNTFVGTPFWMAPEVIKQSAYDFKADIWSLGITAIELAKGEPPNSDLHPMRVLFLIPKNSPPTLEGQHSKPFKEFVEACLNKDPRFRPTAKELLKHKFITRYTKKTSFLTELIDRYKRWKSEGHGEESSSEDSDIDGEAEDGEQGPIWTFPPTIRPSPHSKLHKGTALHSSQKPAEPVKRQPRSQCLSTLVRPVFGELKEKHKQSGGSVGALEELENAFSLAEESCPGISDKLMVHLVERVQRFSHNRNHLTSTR
How it was run: as §1

[24] = target: T24, EPHA4 (Homo sapiens, UniProt P54764)
T24 construct: purchased Reaction Biology Corporation (Kinase HotSpot)
T24 sequence (P54764 20-986): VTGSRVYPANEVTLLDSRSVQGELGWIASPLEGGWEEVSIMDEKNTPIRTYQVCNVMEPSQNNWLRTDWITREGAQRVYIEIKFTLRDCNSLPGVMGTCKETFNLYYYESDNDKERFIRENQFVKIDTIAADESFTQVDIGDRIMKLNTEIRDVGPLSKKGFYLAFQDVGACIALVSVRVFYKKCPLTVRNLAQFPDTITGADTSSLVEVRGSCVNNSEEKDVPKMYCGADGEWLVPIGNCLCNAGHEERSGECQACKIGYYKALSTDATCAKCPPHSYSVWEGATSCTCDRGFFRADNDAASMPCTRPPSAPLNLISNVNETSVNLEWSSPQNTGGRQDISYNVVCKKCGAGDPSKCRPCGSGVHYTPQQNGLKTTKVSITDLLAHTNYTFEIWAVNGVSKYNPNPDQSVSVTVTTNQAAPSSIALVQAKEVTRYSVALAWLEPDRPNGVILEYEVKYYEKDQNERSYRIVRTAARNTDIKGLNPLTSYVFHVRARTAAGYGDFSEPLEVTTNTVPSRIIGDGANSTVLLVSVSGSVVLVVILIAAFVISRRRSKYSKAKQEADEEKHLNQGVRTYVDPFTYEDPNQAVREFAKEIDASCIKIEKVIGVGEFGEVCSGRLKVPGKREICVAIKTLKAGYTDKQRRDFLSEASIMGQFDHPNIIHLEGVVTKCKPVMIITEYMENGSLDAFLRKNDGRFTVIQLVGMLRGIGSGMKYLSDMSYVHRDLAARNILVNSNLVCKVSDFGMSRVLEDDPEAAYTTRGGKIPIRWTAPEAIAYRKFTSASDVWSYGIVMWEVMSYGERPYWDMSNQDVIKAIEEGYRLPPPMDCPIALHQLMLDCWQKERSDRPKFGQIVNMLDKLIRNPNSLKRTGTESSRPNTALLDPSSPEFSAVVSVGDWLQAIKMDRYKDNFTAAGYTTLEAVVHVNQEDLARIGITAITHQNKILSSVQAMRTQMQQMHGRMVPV
How it was run: as §1

[25] = target: T25, PAK3 (Homo sapiens, UniProt O75914)
T25 construct: purchased Reaction Biology Corporation (Kinase HotSpot)
How it was run: as §1

[26] = target: T26, LCK (Homo sapiens, UniProt P06239)
T26 construct: purchased Reaction Biology Corporation (Kinase HotSpot)
T26 sequence (P06239 whole entry): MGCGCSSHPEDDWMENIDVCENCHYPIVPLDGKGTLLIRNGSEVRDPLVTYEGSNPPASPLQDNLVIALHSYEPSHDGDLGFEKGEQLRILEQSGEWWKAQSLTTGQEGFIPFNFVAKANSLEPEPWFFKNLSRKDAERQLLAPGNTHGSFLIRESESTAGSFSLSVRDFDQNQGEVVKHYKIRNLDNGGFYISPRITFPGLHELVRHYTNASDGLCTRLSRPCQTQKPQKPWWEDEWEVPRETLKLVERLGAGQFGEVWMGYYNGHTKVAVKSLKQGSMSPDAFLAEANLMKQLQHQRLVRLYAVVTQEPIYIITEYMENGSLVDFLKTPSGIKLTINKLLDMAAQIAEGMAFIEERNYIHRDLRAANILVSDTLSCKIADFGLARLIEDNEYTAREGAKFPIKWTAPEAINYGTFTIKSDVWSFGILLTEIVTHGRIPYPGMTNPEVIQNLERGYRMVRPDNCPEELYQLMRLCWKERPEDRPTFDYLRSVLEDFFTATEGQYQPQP
How it was run: as §1

[27] = target: T27, FLT3 (Homo sapiens, UniProt P36888)
T27 construct: purchased Reaction Biology Corporation (Kinase HotSpot)
T27 sequence (P36888 27-993): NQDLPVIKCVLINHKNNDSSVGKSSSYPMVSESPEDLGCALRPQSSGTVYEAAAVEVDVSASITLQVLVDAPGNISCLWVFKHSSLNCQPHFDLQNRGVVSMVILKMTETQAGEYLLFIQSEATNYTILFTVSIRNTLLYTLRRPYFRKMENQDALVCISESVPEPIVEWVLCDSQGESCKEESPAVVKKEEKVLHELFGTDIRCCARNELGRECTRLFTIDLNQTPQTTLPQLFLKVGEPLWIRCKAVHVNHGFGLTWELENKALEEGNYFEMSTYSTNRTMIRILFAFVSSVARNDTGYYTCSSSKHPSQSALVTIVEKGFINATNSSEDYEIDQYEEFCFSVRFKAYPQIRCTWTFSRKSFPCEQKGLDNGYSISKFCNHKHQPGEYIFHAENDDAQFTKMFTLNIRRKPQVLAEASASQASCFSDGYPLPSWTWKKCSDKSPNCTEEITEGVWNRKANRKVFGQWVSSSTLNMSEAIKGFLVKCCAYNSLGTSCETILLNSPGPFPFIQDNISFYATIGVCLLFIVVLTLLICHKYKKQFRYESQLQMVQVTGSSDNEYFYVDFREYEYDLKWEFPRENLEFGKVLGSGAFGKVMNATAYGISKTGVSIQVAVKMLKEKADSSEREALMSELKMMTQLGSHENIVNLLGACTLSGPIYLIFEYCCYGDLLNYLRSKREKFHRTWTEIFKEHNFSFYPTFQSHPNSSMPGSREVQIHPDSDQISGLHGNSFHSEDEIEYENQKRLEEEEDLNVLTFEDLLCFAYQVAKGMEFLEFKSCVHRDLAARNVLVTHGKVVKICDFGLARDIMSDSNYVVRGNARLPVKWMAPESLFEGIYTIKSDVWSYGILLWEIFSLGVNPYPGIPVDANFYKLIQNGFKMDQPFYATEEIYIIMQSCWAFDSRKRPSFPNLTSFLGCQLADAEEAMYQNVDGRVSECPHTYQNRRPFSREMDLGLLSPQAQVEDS
How it was run: as §1

[28] = target: T28, STK33 (Homo sapiens, UniProt Q9BYT3)
T28 construct: purchased Reaction Biology Corporation (Kinase HotSpot)
How it was run: as §1

[29] = target: T29, CDK5/p25 (Homo sapiens, UniProt Q00535)
T29 construct: purchased Reaction Biology Corporation (Kinase HotSpot)
How it was run: as §1

[30] = target: T30, MAPKAPK3 (Homo sapiens, UniProt Q16644)
T30 construct: purchased Reaction Biology Corporation (Kinase HotSpot)
How it was run: as §1

Cc1cnc(N[C@H]2CC[C@H](N)CC2)nc1-c1cnc2ccc(-c3ccccc3)cn12 [CDDD11-8]
remaining activity at 1 µM [1]: 87%
remaining activity at 1 µM [2]: 96.9%
remaining activity at 1 µM [3]: 63.7%
remaining activity at 1 µM [4]: 88.9%
remaining activity at 1 µM [5]: 110%
remaining activity at 1 µM [6]: 84.2%
remaining activity at 1 µM [7]: 15%
remaining activity at 1 µM [8]: 84.7%
remaining activity at 1 µM [9]: 80.2%
remaining activity at 1 µM [10]: 78.1%
remaining activity at 1 µM [11]: 96.2%
remaining activity at 1 µM [12]: 98.5%
remaining activity at 1 µM [13]: 96.7%
remaining activity at 1 µM [14]: 68.9%
remaining activity at 1 µM [15]: 57.3%
remaining activity at 1 µM [16]: 102%
remaining activity at 1 µM [17]: 109%
remaining activity at 1 µM [18]: 97.9%
remaining activity at 1 µM [19]: 90.2%
remaining activity at 1 µM [20]: 66.4%
remaining activity at 1 µM [21]: 95.3%
remaining activity at 1 µM [22]: 22.2%
remaining activity at 1 µM [23]: 97.2%
remaining activity at 1 µM [24]: 101%
remaining activity at 1 µM [25]: 87.5%
remaining activity at 1 µM [26]: 72.5%
remaining activity at 1 µM [27]: 2.43%
remaining activity at 1 µM [28]: 70.3%
remaining activity at 1 µM [29]: 77.8%
remaining activity at 1 µM [30]: 91.8%
